From US20220241249A1, “PHARMACEUTICAL COMPOSITION AND KIT CONTAINING NOVEL PENAM DERIVATIVE OR SALT THEREOF AND ONE OR MORE COMPOUNDS SELECTED FROM beta-LACTAMASE INHIBITORY COMPOUND AND ANTIBACTERIAL COMPOUND OR SALTS THEREOF” (priority 2019, published 2022)
Values after ≈ are worked out from the molar mass of the structure shown.

How the values were obtained:
Test in all cases: Antibacterial activity evaluation test, MIC by broth microdilution (CLSI)
Assay type in all cases: cell-based
[1] = tested on: AmpC-derepressed Pseudomonas aeruginosa mutant strain (S-3028); conditions: for MIC: Pseudomonas aeruginosa
Method: (§1) The minimum inhibitory concentration (MIC) was measured according to the Clinical and Laboratory Standards Institute (CLSI) standard method by using the following broth microdilution method.
(§2) As bacteria, a Pseudomonas aeruginosa strain ATCC27853, an AmpC-derepressed Pseudomonas aeruginosa mutant strain (S-3028), an IMP-1-containing Pseudomonas aeruginosa strain (S-2838), a VIM-2-containing Pseudomonas aeruginosa strain (S-3779), a GES-19 and GES-20-containing Pseudomonas aeruginosa strain (S-3759), a CTX-M-15-containing Escherichia coli strain (TK-1747), a KPC-2-containing Klebsiella pneumoniae strain (Y-995), an OXA-48-containing Klebsiella pneumoniae strain (Y-1062), and an NDM-1-containing Klebsiella pneumoniae strain (Y-1007) were used. The test bacterial cells that had been cultured overnight on a Mueller Hinton agar medium were scraped off, suspended at a density equivalent to 0.5 McFarland standard, and diluted 10-fold, thereby obtaining an inoculum. A cation-adjusted Mueller Hinton medium containing a test compound was inoculated with 0.005 mL of the inoculum, and the cells were cultured at 35° C. for 16 to 20 hours. The minimum drug concentration at which the growth of bacteria was not visually observed was defined as MIC (μg/mL).
(§3) An antibacterial activity evaluation test was performed in the same manner as in Test Example 1.

[2] = tested on: KPC-2-containing Klebsiella pneumoniae strain (Y-995); conditions: for MIC: Klebsiella pneumoniae
Method: as §1, §2, §3

[3] = tested on: CTX-M-15-containing Escherichia coli strain (TK-1747); conditions: for MIC: Escherichia coli
Method: as §1, §2, §3

[4] = tested on: GES-19 and GES-20-containing Pseudomonas aeruginosa strain (S-3759); conditions: for MIC: Pseudomonas aeruginosa
Method: as §1, §2, §3

[5] = tested on: VIM-2-containing Pseudomonas aeruginosa strain (S-3779); conditions: for MIC: Pseudomonas aeruginosa
Method: as §1, §2, §3

[6] = tested on: NDM-1-containing Klebsiella pneumoniae strain (Y-1007); conditions: for MIC: Klebsiella pneumoniae
Method: as §1, §2, §3

[7] = tested on: IMP-1-containing Pseudomonas aeruginosa strain (S-2838); conditions: for MIC: Pseudomonas aeruginosa
Method: as §1, §2, §3

[8] = tested on: OXA-48-containing Klebsiella pneumoniae strain (Y-1062); conditions: for MIC: Klebsiella pneumoniae
Method: as §1, §2, §3

[9] = tested on: Pseudomonas aeruginosa strain ATCC27853; conditions: Pseudomonas aeruginosa, ATCC27853
Method: as §1, §2, §3

Structure (SMILES)	MIC [1] [µg/mL]	MIC [2] [µg/mL]	MIC [3] [µg/mL]	MIC [4] [µg/mL]	MIC [5] [µg/mL]	MIC [6] [µg/mL]	MIC [7] [µg/mL]	MIC [8] [µg/mL]	MIC [9] [µg/mL]	Antibacterial activity (MIC) Pseudomonas aeruginosa S-3028 ([1]; Pseudomonas aeruginosa S-3028) [µg/mL]	Antibacterial activity (MIC) Klebsiella pneumoniae Y-995 ([2]; Klebsiella pneumoniae Y-995) [µg/mL]	Antibacterial activity (MIC) Escherichia coli TK-1747 ([3]; Escherichia coli TK-1747) [µg/mL]	Antibacterial activity (MIC) Pseudomonas aeruginosa S-3759 ([4]; Pseudomonas aeruginosa S-3759) [µg/mL]	Antibacterial activity (MIC) Pseudomonas aeruginosa S-3779 ([5]; Pseudomonas aeruginosa S-3779) [µg/mL]	Antibacterial activity (MIC) Klebsiella pneumoniae Y-1007 ([6]; Klebsiella pneumoniae Y-1007) [µg/mL]	Antibacterial activity (MIC) Pseudomonas aeruginosa S-2838 ([7]; Pseudomonas aeruginosa S-2838) [µg/mL]	Antibacterial activity (MIC) Klebsiella pneumoniae Y-1062 ([8]; Klebsiella pneumoniae Y-1062) [µg/mL]	Antibacterial activity (MIC) Pseudomonas aeruginosa ATCC 27853 [9] [µg/mL]
CC(C)(O/N=C(\C(=O)N[C@@H]1C(=O)N2C[C@@](C(=O)O)(n3cc(CNC(=O)c4ccc(O)c(O)c4Cl)nn3)S[C@H]12)c1csc(N)n1)C(=O)O [Example 74, (3R,5R,6R)-6-((Z)-2-(2-aminothiazol-4-yl)-2-(((2-carboxypropan-2-yl)oxy)imino)acetamido)-3-(4-((2-chloro-3,4-dihydroxybenzamido)methyl)-1H-1,2,3-triazol-1-yl)-7-oxo-4-thia-1-azabicyclo[3.2.0]heptane-3-carboxylic acid]	0.5 (≈ 0.704 µM)	2 (≈ 2.82 µM)	1 (≈ 1.41 µM)	1 (≈ 1.41 µM)	1 (≈ 1.41 µM)	0.25 (≈ 0.352 µM)	0.25 (≈ 0.352 µM)	4 (≈ 5.63 µM)	0.5 (≈ 0.704 µM)									
CC(C)(O/N=C(\C(=O)N[C@@H]1C(=O)N2C[C@@](C(=O)O)(N3CCN(NC(=O)CNC(=O)C(=O)c4ccc(O)c(O)c4Cl)C3=O)S[C@H]12)c1csc(N)n1)C(=O)O [Example 29]	< 0.06	0.5 (≈ 0.626 µM)	2 (≈ 2.51 µM)	0.5 (≈ 0.626 µM)	0.5 (≈ 0.626 µM)	< 0.06	1 (≈ 1.25 µM)	1 (≈ 1.25 µM)	0.25 (≈ 0.313 µM)									
CC(C)(O/N=C(\C(=O)N[C@@H]1C(=O)N2C[C@@](C(=O)O)(N3CCN(NC(=O)C(=O)c4ccc(O)c(O)c4Cl)C3=O)S[C@H]12)c1csc(N)n1)C(=O)O [Example 20, (3R,5R,6R)-6-((Z)-2-(2-aminothiazol-4-yl)-2-(((2-carboxypropan-2-yl)oxy)imino)acetamido)-3-(3-(2-(2-chloro-3,4-dihydroxyphenyl)-2-oxoacetamido)-2-oxoimidazolidin-1-yl)-7-oxo-4-thia-1-azabicyclo[3.2.0]heptane-3-carboxylic acid]	0.25 (≈ 0.337 µM)	0.12 (≈ 0.162 µM)	< 0.06	0.5 (≈ 0.675 µM)	0.25 (≈ 0.337 µM)	< 0.06	0.12 (≈ 0.162 µM)	0.5 (≈ 0.675 µM)	0.5 (≈ 0.675 µM)									
CC(C)(O/N=C(\C(=O)NC1C(=O)N2C[C@@](C(=O)O)(N3CCN(NC(=O)NNC(=O)C(=O)c4ccc(O)c(O)c4Cl)C3=O)S[C@H]12)c1csc(N)n1)C(=O)O (stereo partly drawn) [Example 153]										0.12	0.25	0.5	2	1	< 0.06	0.5	4	0.5
Nc1nc(/C(=N/OC2(C(=O)O)CC2)C(=O)N[C@@H]2C(=O)N3C[C@@](C(=O)O)(N4CCN(NC(=O)C(=O)c5ccc(O)c(O)c5Cl)C4=O)S[C@H]23)c(Cl)s1 [Example 76, (3R,5R,6R)-6-((Z)-2-(2-amino-5-chlorothiazol-4-yl)-2-((1-carboxycyclopropoxy)imino)acetamido)-3-(3-(2-(2-chloro-3,4-dihydroxyphenyl)-2-oxoacetamido)-2-oxoimidazolidin-1-yl)-7-oxo-4-thia-1-azabicyclo[3.2.0]heptane-3-carboxylic acid]	0.12 (≈ 0.155 µM)	0.25 (≈ 0.323 µM)	0.06 (≈ 0.0776 µM)	0.25 (≈ 0.323 µM)	0.25 (≈ 0.323 µM)	0.25 (≈ 0.323 µM)	0.5 (≈ 0.646 µM)	0.25 (≈ 0.323 µM)	0.5 (≈ 0.646 µM)									
CC(C)(O/N=C(\C(=O)N[C@@H]1C(=O)N2C[C@@](C(=O)O)(N3CC[C@@H](NC(=O)C(=O)c4ccc(O)c(O)c4Cl)C3=O)S[C@H]12)c1csc(N)n1)C(=O)O [Example 85, (3R,5R,6R)-6-((Z)-2-(2-aminothiazol-4-yl)-2-(((2-carboxypropan-2-yl)oxy)imino)acetamido)-3-((R)-3-(2-(2-chloro-3,4-dihydroxyphenyl)-2-oxoacetamido)-2-oxopyrrolidin-1-yl)-7-oxo-4-thia-1-azabicyclo[3.2.0]heptane-3-carboxylic acid]	0.12 (≈ 0.162 µM)	< 0.06	< 0.06	0.25 (≈ 0.338 µM)	0.25 (≈ 0.338 µM)	< 0.06	0.25 (≈ 0.338 µM)	0.12 (≈ 0.162 µM)	0.5 (≈ 0.676 µM)									
CC(C)(O/N=C(\C(=O)NC1C(=O)N2C[C@@](C(=O)O)(N3CCN(NC(=O)C(=O)NCCNC(=O)C(=O)c4ccc(O)c(O)c4Cl)C3=O)S[C@H]12)c1csc(N)n1)C(=O)O (stereo partly drawn) [Example 121, (3R,5R,6R)-6-((Z)-2-(2-aminothiazol-4-yl)-2-(((2-carboxypropan-2-yl)oxy)imino)aceta-mido)-3-(3-(2-((2-(2-(2-chloro-3,4-dihydroxy-phenyl)-2-oxoaceta-mido)ethyl)amino)-2-oxoacetamido)-2-oxo-imidazolidin-1-yl)-7-oxo-4-thia-1-azabicyclo-[3.2.0]heptane-3-carbox-ylic acid]	2 (≈ 2.34 µM)	0.25 (≈ 0.292 µM)	< 0.06	2 (≈ 2.34 µM)	1 (≈ 1.17 µM)	0.12 (≈ 0.14 µM)	4 (≈ 4.68 µM)	0.5 (≈ 0.585 µM)	2 (≈ 2.34 µM)									
CC(C)(O/N=C(\C(=O)NC1C(=O)N2C[C@@](C(=O)O)(N3CCN(NC(=O)C(=O)NNC(=O)C(=O)c4ccc(O)c(O)c4Cl)C3=O)S[C@H]12)c1nc(N)sc1Cl)C(=O)O (stereo partly drawn) [Example 136, (3R,5R,6R)-6-((Z)-2-(2-amino-5-chlorothia-zol-4-yl)-2-(((2-carboxy-propan-2-yl)oxy)imino)-acetamido)-3-(3-(2-(2-(2-(2-chloro-3,4-dihydroxyphenyl)-2-oxoacetyl)hydrizinyl)-2-oxoacetamido)-2-oxoimidazolidin-1-yl)-7-oxo-4-thia-1-aza-bicyclo[3.2.0]heptane-3-carboxylic acid]	0.12 (≈ 0.139 µM)	0.25 (≈ 0.29 µM)	< 0.06	0.5 (≈ 0.58 µM)	0.5 (≈ 0.58 µM)	0.12 (≈ 0.139 µM)	0.12 (≈ 0.139 µM)	0.12 (≈ 0.139 µM)	0.5 (≈ 0.58 µM)									
CC(C)(O/N=C(\C(=O)N[C@@H]1C(=O)N2C[C@@](C(=O)O)(N3CCN(NC(=O)c4ccc(O)c(O)c4Cl)C3=O)S[C@H]12)c1csc(N)n1)C(=O)O [Example 2, (3R,5R,6R)-6-((Z)-2-(2-aminothiazol-4-yl)-2-(((2-carboxypropan-2-yl)oxy)imino)acetamido)-3-(3-(2-chloro-3,4-dihydroxybenzamido)-2-oxoimidazolidin-1-yl)-7-oxo-4-thia-1-azabicyclo[3.2.0]heptane-3-carboxylic acid]	1 (≈ 1.4 µM)	0.12 (≈ 0.168 µM)	0.25 (≈ 0.351 µM)	4 (≈ 5.61 µM)	0.25 (≈ 0.351 µM)	< 0.06	0.5 (≈ 0.701 µM)	2 (≈ 2.8 µM)	1 (≈ 1.4 µM)									
CC(C)(O/N=C(\C(=O)N[C@@H]1C(=O)N2C[C@@](C(=O)O)(N3CCN(NC(=O)C(=O)c4ccc(O)c(O)c4Cl)C3=O)S[C@H]12)c1nc(N)sc1Cl)C(=O)O [Example 22, (3R,5R,6R)-6-((Z)-2-(2-amino-5-chlorothiazol-4-yl)-2-(((2-carboxypropan-2-yl)oxy)imino)acetamido)-3-(3-(2-(2-chloro-3,4-dihydroxyphenyl)-2-oxoacetamido)-2-oxoimidazolidin-1-yl)-7-oxo-4-thia-1-azabicyclo[3.2.0]heptane-3-carboxylic acid]	0.5 (≈ 0.645 µM)	0.06 (≈ 0.0774 µM)	< 0.06	0.5 (≈ 0.645 µM)	0.25 (≈ 0.322 µM)	< 0.06	0.5 (≈ 0.645 µM)	0.06 (≈ 0.0774 µM)	0.5 (≈ 0.645 µM)									
CC(C)(O/N=C(\C(=O)N[C@@H]1C(=O)N2C[C@@](C(=O)O)(n3ncn(NC(=O)C(=O)c4ccc(O)c(O)c4Cl)c3=O)S[C@H]12)c1csc(N)n1)C(=O)O [Example 26, (3R,5R,6R)-6-((Z)-2-(2-aminothiazol-4-yl)-2-(((2-carboxypropan-2-yl)oxy)imino)acetamido)-3-(4-(2-(2-chloro-3,4-dihydroxyphenyl)-2-oxoacetamido)-5-oxo-4,5-dihydro-1H-1,2,4-triazol-1-yl)-7-oxo-4-thia-1-azabicyclo[3.2.0]heptane-3-carboxylic acid]	0.12 (≈ 0.162 µM)	0.12 (≈ 0.162 µM)	0.12 (≈ 0.162 µM)	0.25 (≈ 0.338 µM)	0.25 (≈ 0.338 µM)	< 0.06	0.25 (≈ 0.338 µM)	0.5 (≈ 0.676 µM)	1 (≈ 1.35 µM)									
